In patent publication US8785457B2 (Cellzome Limited, priority 2009, dated 2014):
Where two headings read alike, the source gives them in different places.

Tests used:
[1] = target: T1, PI3Kalpha (PI3Ka) (Homo sapiens, UniProt P42336); experiment: kinobeads assay, PI3Kalpha; type: binding; details: kinobeads assay, Table 6
T1 construct: endogenous in cells; host or cells: cell lysate
Procedure, shortened: (§1)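 Test compounds at various concentrations were added to cell lysate together with beads carrying an immobilized phenylmorpholin-chromen ligand, competing for kinase binding. Captured proteins were separated, eluted and quantified by multiplexed immunodetection; IC50 values came from dose-response curves for each kinase.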

[2] = target: T2, PI3K delta (PI3 Kd) (Homo sapiens, UniProt O00329); experiment: kinobeads assay, PI3K delta; type: binding; details: kinobeads assay, read-out: Inhibition values (IC50) PI3Kd
T2 construct: endogenous in cells; host or cells: Jurkat, clone E6-1 (ATCC TIB-152) cell lysate
Procedure, shortened: (§2)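 IC50 values came from dose-response curves after test compound (1:3 series) competed with an immobilized phenylmorpholin-chromen affinity matrix for kinases in Jurkat lysate at 5 mg/mL protein. Eluted captured DNA-PK and PI3Kδ were measured by specific-antibody dot blot and infrared imaging. Buffer was Tris pH 7.4, NP40, MgCl2, NaCl, vanadate, DTT, NaF.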

[3] = system: S6RP serine-240/244 phosphorylation; experiment: In vitro Phospho-S6 cellular assay (pS6RP S240/244) in HEK293T/17 cells; type: cell-based; details: Homo sapiens, 2 hours, read-out: pS6 IC50
Description: Activation of mTOR signaling results in phosphorylation of several downstream targets. In cells, mTOR exists in two different protein complexes. The mTOR Complex-1 (mTORC1) phosphorylates and activates S6 Kinase 1 (S6K1) and S6 Kinase 2 (S6K2) (also known as p70S6K) which then phosphorylate S6 Ribosomal Protein (S6RP) (also known as RPS6)3. S6RP is phosphorylated on serine 235, serine 236, serine 240 and serine 244 by both pS6K1 and pS6K2. The mTOR Complex-2 (mTORC2) phosphorylates AKT on serine 473 which activates the AKT signaling pathway.
The assay measures a test compound's inhibition of S6RP serine-240/244 phosphorylation and inhibition of Akt serine-473 phosphorylation in human embryonic kidney derived HEK293T/17 cells (ATCC CRL-11268).
The HEK293T/17 cell line is maintained in DMEM media (Invitrogen catalogue number 41965-039) supplemented with 10% FCS at 37° C. in a 5% CO2 humidified incubator.
Cells are seeded in 96-well plates at 40,000 cells/well (pS6RP S240/244 assay) or 80,000 cells/well (pAkt S473 assay) in 90 μl growth media (DMEM, 2% FCS). Plates are incubated for 1 hour in a humidified incubator to allow the cells to adhere. Cells are treated with 8 concentrations of test compounds or DMSO alone for controls (final DMSO concentration 0.1%) and incubated at 37° C. for 2 hours. Then 20 μl of 5× concentrated lysis buffer (750 mM NaCl, 100 mM Tris pH7.4, 5 mM ADTA, 5 mM EGTA, 5% Triton X-100) is added, plates are sealed and incubated for 15 minutes at 4° C. with gentle shaking. After cell lysis, 25 μl cell lysate is transferred to a MesoScale plate coated with an antibody to pS6RP Ser240/244 (MesoScale Discovery K150DGD-3) or an antibody to pAkt Ser 473 (MesoScale Discovery K151DGD-3). Plates have been blocked before by incubation with 150 μl MesoScale Discovery Blocking Solution-A for 1 hour at room temperature followed by washing with 150 μl 1× Tris wash buffer per well. After the transfer of the cell lysate to the MSD plate, the pS6RP (or pAkt) protein is captured on the coated antibody by incubation at room temperature for 1 hour with gentle shaking. After the capture step the plate is washed three times with 150 μl of 1× Tris wash buffer per well. Then 25 μl detection antibody conjugated with a Sulfo-Tag is added and incubated for 1 hour at room temperature with gentle shaking. Subsequently the antibody solution is removed and the plate is washed 3 times with 150 μl×Tris wash buffer per well and 150 μl Read buffer is added. The plates are analysed on a MSD 2400 Plate Reader (MesoScale Discovery). Data analysis is performed using nonlinear regression for a sigmoidal dose-response with a variable slope.

[4] = target: T3, PI3 Kbeta (PI3 Kb) (Homo sapiens, UniProt P42338); experiment: kinobeads assay, PI3Kbeta; type: binding; details: kinobeads assay, Table 6; read-out: Inhibition values (IC50) PI3Kb
T3 construct: endogenous in cells; host or cells: cell lysate
Procedure, shortened: as §1

[5] = target: T4, PI3 Kgamma (PI3 Kg) (Homo sapiens, UniProt P48736); experiment: kinobeads assay, PI3Kgamma; type: binding; details: kinobeads assay, Table 6; read-out: Inhibition values (IC50) PI3Kg
T4 construct: endogenous in cells; host or cells: cell lysate
Procedure, shortened: as §1

[6] = target: T5, DNA-dependent protein kinase (DNA-PK) (Homo sapiens, UniProt P78527); experiment: kinobeads assay, DNA-PK; type: binding; details: kinobeads assay
T5 construct: endogenous in cells; host or cells: Jurkat, clone E6-1 (ATCC TIB-152) cell lysate
T5 sequence (P78527 whole entry): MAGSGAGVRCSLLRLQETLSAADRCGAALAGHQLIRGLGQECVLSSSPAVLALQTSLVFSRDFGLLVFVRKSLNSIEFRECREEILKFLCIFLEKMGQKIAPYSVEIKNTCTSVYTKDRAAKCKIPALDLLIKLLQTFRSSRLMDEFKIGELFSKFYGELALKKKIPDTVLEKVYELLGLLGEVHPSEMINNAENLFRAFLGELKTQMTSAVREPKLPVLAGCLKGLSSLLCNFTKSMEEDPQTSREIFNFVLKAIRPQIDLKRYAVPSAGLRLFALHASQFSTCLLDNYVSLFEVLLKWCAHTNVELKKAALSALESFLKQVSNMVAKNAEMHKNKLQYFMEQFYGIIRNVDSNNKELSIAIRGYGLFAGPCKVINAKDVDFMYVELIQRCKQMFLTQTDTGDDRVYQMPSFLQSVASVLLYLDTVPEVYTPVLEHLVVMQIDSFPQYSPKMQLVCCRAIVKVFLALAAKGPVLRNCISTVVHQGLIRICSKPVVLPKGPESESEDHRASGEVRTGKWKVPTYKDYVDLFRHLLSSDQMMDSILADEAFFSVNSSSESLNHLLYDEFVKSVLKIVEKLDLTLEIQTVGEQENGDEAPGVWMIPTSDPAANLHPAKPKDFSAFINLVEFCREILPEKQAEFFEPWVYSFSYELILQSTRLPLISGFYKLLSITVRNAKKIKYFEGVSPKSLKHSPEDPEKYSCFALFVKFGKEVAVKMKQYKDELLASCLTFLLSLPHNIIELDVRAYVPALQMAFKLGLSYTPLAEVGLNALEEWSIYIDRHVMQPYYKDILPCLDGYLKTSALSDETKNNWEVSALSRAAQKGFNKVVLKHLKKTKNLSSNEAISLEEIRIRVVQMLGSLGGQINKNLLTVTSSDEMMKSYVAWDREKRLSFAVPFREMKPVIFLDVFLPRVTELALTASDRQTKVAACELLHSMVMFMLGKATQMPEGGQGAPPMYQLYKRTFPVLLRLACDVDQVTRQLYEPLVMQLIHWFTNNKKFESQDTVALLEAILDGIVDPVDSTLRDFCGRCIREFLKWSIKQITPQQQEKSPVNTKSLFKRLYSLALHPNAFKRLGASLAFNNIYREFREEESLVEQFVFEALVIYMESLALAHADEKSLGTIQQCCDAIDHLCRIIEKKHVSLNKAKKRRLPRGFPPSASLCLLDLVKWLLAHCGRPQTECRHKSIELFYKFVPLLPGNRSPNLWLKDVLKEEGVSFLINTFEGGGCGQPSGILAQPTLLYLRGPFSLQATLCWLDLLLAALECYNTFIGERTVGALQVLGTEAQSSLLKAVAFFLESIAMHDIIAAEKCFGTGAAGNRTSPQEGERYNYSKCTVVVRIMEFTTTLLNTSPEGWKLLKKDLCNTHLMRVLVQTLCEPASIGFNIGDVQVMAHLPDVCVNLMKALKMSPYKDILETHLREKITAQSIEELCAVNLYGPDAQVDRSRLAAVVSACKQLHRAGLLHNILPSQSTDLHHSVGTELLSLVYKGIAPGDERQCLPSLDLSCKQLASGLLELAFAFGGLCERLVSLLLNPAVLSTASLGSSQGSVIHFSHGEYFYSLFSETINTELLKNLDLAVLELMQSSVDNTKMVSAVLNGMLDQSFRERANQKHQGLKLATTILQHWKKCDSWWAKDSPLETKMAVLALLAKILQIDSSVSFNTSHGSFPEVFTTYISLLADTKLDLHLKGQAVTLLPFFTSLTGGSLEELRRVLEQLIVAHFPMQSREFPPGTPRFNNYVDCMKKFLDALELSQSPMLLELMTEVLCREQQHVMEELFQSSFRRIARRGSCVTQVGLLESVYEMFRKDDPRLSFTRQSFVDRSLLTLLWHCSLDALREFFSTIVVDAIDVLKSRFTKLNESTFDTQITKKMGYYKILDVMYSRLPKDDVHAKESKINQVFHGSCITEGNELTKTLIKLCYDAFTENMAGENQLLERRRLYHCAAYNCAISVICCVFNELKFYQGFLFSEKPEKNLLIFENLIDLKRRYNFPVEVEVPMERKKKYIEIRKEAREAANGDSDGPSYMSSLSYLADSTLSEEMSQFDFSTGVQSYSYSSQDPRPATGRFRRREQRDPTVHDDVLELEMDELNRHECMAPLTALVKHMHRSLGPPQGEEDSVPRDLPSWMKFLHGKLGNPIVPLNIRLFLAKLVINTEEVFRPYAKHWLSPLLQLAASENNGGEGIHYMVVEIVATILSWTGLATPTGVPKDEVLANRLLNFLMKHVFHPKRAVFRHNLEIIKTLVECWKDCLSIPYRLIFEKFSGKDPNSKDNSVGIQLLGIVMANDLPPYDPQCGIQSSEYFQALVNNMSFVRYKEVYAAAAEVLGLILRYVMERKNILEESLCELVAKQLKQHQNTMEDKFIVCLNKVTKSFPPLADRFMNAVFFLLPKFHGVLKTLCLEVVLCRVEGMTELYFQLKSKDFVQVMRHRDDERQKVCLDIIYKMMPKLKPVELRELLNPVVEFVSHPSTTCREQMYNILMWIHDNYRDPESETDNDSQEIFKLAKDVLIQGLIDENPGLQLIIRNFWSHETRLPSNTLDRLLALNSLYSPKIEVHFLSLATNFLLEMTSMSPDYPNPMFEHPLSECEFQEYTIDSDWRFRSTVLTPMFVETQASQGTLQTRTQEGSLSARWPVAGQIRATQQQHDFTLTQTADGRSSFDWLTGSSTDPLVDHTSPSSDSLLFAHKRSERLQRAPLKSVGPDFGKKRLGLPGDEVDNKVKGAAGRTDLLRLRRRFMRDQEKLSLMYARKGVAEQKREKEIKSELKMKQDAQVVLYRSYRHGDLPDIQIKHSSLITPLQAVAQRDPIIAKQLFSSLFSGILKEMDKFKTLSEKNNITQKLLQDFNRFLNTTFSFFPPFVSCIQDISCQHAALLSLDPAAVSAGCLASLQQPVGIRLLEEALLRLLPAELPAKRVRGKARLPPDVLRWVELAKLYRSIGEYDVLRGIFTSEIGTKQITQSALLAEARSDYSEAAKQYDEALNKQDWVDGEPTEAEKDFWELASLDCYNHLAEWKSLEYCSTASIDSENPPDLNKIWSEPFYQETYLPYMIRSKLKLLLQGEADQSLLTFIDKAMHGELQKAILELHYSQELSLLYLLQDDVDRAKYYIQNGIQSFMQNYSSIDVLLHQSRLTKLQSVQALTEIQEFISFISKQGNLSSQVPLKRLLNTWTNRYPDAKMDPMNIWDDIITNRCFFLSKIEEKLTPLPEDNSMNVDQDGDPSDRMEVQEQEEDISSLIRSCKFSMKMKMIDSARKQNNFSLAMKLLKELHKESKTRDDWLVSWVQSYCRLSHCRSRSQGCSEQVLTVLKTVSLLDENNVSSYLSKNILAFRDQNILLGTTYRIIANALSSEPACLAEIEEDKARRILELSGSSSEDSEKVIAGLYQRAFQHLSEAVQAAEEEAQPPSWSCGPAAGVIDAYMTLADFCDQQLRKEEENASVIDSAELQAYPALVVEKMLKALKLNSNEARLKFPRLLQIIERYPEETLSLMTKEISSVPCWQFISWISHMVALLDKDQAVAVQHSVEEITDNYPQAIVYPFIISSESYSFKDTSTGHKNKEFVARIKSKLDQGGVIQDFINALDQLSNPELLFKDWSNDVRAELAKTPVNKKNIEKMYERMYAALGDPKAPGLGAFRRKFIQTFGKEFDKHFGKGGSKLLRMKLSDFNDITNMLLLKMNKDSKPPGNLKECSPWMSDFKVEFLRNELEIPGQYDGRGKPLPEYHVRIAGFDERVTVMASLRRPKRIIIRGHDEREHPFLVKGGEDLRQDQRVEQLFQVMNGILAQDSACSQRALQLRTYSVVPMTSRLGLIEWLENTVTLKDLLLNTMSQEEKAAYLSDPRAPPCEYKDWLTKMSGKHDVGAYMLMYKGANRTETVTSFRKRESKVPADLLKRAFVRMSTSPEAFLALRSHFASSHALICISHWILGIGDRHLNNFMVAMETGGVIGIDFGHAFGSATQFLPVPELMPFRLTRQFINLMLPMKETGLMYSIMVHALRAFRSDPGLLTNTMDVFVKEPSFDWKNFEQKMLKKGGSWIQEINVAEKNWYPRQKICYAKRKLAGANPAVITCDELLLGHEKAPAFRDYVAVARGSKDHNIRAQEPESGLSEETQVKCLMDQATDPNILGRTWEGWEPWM
Procedure, shortened: as §2

[7] = system: Salmonella typhimurium strain TA98; experiment: Ames plate assay, TA98
Procedure: (§3) Certain compounds of the invention were tested for their potential to induce gene mutations in bacterial strains of Salmonella typhimurium (strains TA1535, TA1537, TA98, TA100) and Escherichia coli (strain WP2uvrA(pKM101)) in a bacterial mutation assay in the absence and presence of metabolite activation (rat S9-mix). Compounds are tested at the following dose levels: 50, 150, 500, or 1500 μg/plate.
(§4) Vehicle control treatment is the vehicle used to prepare the test compound formulation diluted to the same extent as the test compound solution. Positive controls using known mutagens are included for each strain with and without rat S9 mix. Four plates are used for the vehicle control and two replicate plates per dose per strain for the treated groups and for each positive control. At the end of incubation the number of revertant colonies per plate are recorded and mean values calculated for each vehicle control, positive control and concentration of test compound used. Results are also expressed as a ratio of the mean values to the mean concurrent vehicle control value (i.e. fold increase).

[8] = system: Salmonella typhimurium strain TA1537; experiment: Ames plate assay, TA1537
Procedure: as §3, §4

[9] = system: Salmonella typhimurium strain TA1535; experiment: Ames plate assay, TA1535
Procedure: as §3, §4

[10] = system: Salmonella typhimurium strain TA100; experiment: Ames plate assay, TA100
Procedure: as §3, §4

[11] = system: Escherichia coli strain WP2uvrA(pKM101); experiment: Ames plate assay, WP2uvrA(pKM101)
Procedure: as §3, §4

[12] = target: T6, mTOR (Homo sapiens, UniProt P42345); experiment: mTOR kinobeads assay (competitive binding in Jurkat cell lysate, immunodetection); details: kinobeads assay, Table 6; read-out: Inhibition values (IC50) mTOR
T6 construct: endogenous in cells; host or cells: Jurkat, clone E6-1 (ATCC TIB-152) cell lysate
Procedure, shortened: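 IC50 derived from dose-response curves of mTOR captured on immobilized phenylmorpholin-chromen beads, detected by antibody dot blot with infrared fluorescence.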

[13] = Table 6, read-out: Inhibition values (IC50) DNAPK
[14] = Table 4, read-out: Inhibition values (IC50) DNA-PK

CCNC(=O)Nc1ccc(-c2nc3c(c(N4CCOCC4)n2)CCN(C(=O)OC)C3)cc1 [Example 95, methyl 2-(4-(3-ethylureido)phenyl)-4-morpholino-5,6-dihydropyrido[3,4-d]pyrimidine-7(8H)-carboxylate]
Inhibition values (IC50) PI3Ka [1]: D (D >10 μM)
IC50 ([2]; Table 6): > 10 µM
IC50 [3]: 0.218 µM
IC50 [4]: > 10 µM
IC50 [5]: > 10 µM
IC50 [6, 13]: > 10 µM

CCOC(=O)N1Cc2nc(-c3ccc(N)cc3F)nc(N3CCOC[C@@H]3C)c2C1 [Example 138]
Ames plate assay TA98 +S9 ([7]; TA98, +S9, 50 μg/Plate): −
Ames plate assay TA98 +S9 ([7]; TA98, +S9, 150 μg/Plate): −
Ames plate assay TA98 +S9 ([7]; TA98, +S9, 500 μg/Plate): −
Ames plate assay TA98 +S9 ([7]; TA98, +S9, 1500 μg/Plate): −
Ames plate assay TA98 −S9 ([7]; TA98, −S9, 50 μg/Plate): −
Ames plate assay TA98 −S9 ([7]; TA98, −S9, 150 μg/Plate): −
Ames plate assay TA98 −S9 ([7]; TA98, −S9, 500 μg/Plate): −
Ames plate assay TA98 −S9 ([7]; TA98, −S9, 1500 μg/Plate): −
Ames plate assay TA1537 +S9 ([8]; TA1537, +S9, 50 μg/Plate): −
Ames plate assay TA1537 +S9 ([8]; TA1537, +S9, 150 μg/Plate): −
Ames plate assay TA1537 +S9 ([8]; TA1537, +S9, 500 μg/Plate): −
Ames plate assay TA1537 +S9 ([8]; TA1537, +S9, 1500 μg/Plate): −
Ames plate assay TA1537 −S9 ([8]; TA1537, −S9, 50 μg/Plate): −
Ames plate assay TA1537 −S9 ([8]; TA1537, −S9, 150 μg/Plate): −
Ames plate assay TA1537 −S9 ([8]; TA1537, −S9, 500 μg/Plate): −
Ames plate assay TA1537 −S9 ([8]; TA1537, −S9, 1500 μg/Plate): −
Ames plate assay TA1535 +S9 ([9]; TA1535, +S9, 50 μg/Plate): −
Ames plate assay TA1535 +S9 ([9]; TA1535, +S9, 150 μg/Plate): −
Ames plate assay TA1535 +S9 ([9]; TA1535, +S9, 500 μg/Plate): −
Ames plate assay TA1535 +S9 ([9]; TA1535, +S9, 1500 μg/Plate): −
Ames plate assay TA1535 −S9 ([9]; TA1535, −S9, 50 μg/Plate): −
Ames plate assay TA1535 −S9 ([9]; TA1535, −S9, 150 μg/Plate): −
Ames plate assay TA1535 −S9 ([9]; TA1535, −S9, 500 μg/Plate): −
Ames plate assay TA1535 −S9 ([9]; TA1535, −S9, 1500 μg/Plate): −
Ames plate assay TA100 +S9 ([10]; TA100, +S9, 50 μg/Plate): −
Ames plate assay TA100 +S9 ([10]; TA100, +S9, 150 μg/Plate): −
Ames plate assay TA100 +S9 ([10]; TA100, +S9, 500 μg/Plate): −
Ames plate assay TA100 +S9 ([10]; TA100, +S9, 1500 μg/Plate): −
Ames plate assay TA100 −S9 ([10]; TA100, −S9, 50 μg/Plate): −
Ames plate assay TA100 −S9 ([10]; TA100, −S9, 150 μg/Plate): −
Ames plate assay TA100 −S9 ([10]; TA100, −S9, 500 μg/Plate): −
Ames plate assay TA100 −S9 ([10]; TA100, −S9, 1500 μg/Plate): −
Ames plate assay WP2uvrA (pKM101) +S9 ([11]; +S9, 50 μg/Plate): −
Ames plate assay WP2uvrA (pKM101) +S9 ([11]; +S9, 150 μg/Plate): −
Ames plate assay WP2uvrA (pKM101) +S9 ([11]; +S9, 500 μg/Plate): −
Ames plate assay WP2uvrA (pKM101) +S9 ([11]; +S9, 1500 μg/Plate): −
Ames plate assay WP2uvrA (pKM101) −S9 ([11]; −S9, 50 μg/Plate): −
Ames plate assay WP2uvrA (pKM101) −S9 ([11]; −S9, 150 μg/Plate): −
Ames plate assay WP2uvrA (pKM101) −S9 ([11]; −S9, 500 μg/Plate): −
Ames plate assay WP2uvrA (pKM101) −S9 ([11]; −S9, 1500 μg/Plate): −

CCNC(=O)Nc1ccc(-c2nc3c(c(N4CCOCC4)n2)CN(C(=O)NCC)C3)cc1 [Example 79, N-ethyl-2-(4-(3-ethylureido)phenyl)-4-morpholino-5H-pyrrolo[3,4-d]pyrimidine-6(7H)-carboxamide]
IC50 ([1]; read-out: Inhibition values (IC50) PI3Ka): 1 to 10 µM
IC50 ([2]; Table 6): 1 to 10 µM
IC50 [3]: 0.589 µM
IC50 [4]: > 10 µM
IC50 [5]: > 10 µM
IC50 [6, 13]: 1 to 10 µM

CCNC(=O)Nc1ccc(-c2nc3c(c(N4CCOC[C@@H]4C)n2)CCN(C(C)C)C3)cc1.O=CO [Example 75, (S)-1-ethyl-3-(4-(7-isopropyl-4-(3-methylmorpholino)-5,6,7,8-tetrahydropyrido[3,4-d]pyrimidin-2-yl)phenyl)urea formate]
Inhibition values (IC50) PI3Ka [1]: D (D >10 μM)
IC50 ([2]; Table 6): > 10 µM
IC50 [3]: 0.082 µM
IC50 [4]: > 10 µM
IC50 [5]: > 10 µM
IC50 [6, 13]: > 10 µM

CCNC(=O)Nc1ccc(-c2nc3c(c(N4CCOCC4)n2)CN(C(=O)OC(C)(C)C)C3)cc1 [Example 63, tert-butyl 2-(4-(3-ethylureido)phenyl)-4-morpholino-5H-pyrrolo[3,4-d]pyrimidine-6(7H)-carboxylate]
IC50 ([2]; Table 4): 1 to 10 µM
IC50 ([2]; Table 6): 1 to 10 µM
IC50 [3]: 0.046 µM
IC50 [6, 14]: > 10 µM
IC50 [6, 13]: > 10 µM

CCNC(=O)Nc1ccc(-c2nc3c(c(N4CCOCC4)n2)CCNC3)cc1 [Example 82, 1-ethyl-3-(4-(4-morpholino-5,6,7,8-tetrahydropyrido[3,4-d]pyrimidin-2-yl)phenyl)urea]
Inhibition values (IC50) PI3Ka [1]: D (D >10 μM)
IC50 ([2]; Table 6): > 10 µM
IC50 [3]: 0.991 µM
IC50 [4]: > 10 µM
IC50 [5]: > 10 µM
IC50 [6, 13]: > 10 µM

CCNC(=O)Nc1ccc(-c2nc3c(c(N4CCOC[C@@H]4C)n2)CN(C(=O)OC(C)(C)C)CC3)cc1 [Example 2, (S)-tert-butyl 2-(4-(3-ethylureido)phenyl)-4-(3-methylmorpholino)-7,8-dihydropyrido[4,3-d]pyrimidine-6(5H)-carboxylate]
IC50 ([2]; Table 4): > 10 µM
IC50 ([2]; Table 6): > 10 µM
IC50 [3]: 0.122 µM
IC50 [6, 14]: > 10 µM
IC50 [6, 13]: > 10 µM

CCNC(=O)Nc1ccc(-c2nc3c(c(N4CCOC[C@@H]4C)n2)CN(C(=O)CCN(C)C)CC3)cc1 [Example 92, (S)-1-(4-(6-(3-(dimethylamino)propanoyl)-4-(3-methylmorpholino)-5,6,7,8-tetrahydropyrido[4,3-d]pyrimidin-2-yl)phenyl)-3-ethylurea]
Inhibition values (IC50) PI3Ka [1]: D (D >10 μM)
IC50 ([2]; Table 6): > 10 µM
IC50 [12]: 0.1 to 1 µM
IC50 [4]: > 10 µM
IC50 [5]: > 10 µM
IC50 [6, 13]: > 10 µM
